Series [1] concerns the target T1, human DGAT1 (Homo sapiens, UniProt O75907).
T1 construct: FLAG (N); made in house; host or cells: SF9 insect cells (pFastBac baculovirus); total cell membranes
T1 sequence (O75907 1-488): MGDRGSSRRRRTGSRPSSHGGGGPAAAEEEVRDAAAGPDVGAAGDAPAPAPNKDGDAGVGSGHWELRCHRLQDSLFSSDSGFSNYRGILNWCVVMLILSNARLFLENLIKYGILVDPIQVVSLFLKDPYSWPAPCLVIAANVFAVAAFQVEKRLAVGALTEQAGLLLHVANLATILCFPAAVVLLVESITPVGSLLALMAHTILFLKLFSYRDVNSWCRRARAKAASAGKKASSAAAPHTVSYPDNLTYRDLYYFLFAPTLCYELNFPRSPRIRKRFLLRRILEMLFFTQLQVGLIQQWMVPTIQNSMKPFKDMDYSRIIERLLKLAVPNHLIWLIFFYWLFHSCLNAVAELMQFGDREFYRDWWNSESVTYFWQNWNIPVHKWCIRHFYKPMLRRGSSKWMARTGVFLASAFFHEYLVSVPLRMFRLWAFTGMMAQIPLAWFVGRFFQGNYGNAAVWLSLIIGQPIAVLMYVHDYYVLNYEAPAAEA
Description: Inhibition of DGAT1 activity, FlashPlate assay with DGAT1 membrane preparations and substrate micelles. The class given is biochemical. The following applies: pIC50 = -logIC50, IC50 values expressed in M. The method, boiled down: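 FLAG-tagged human DGAT1 membranes (expressed in Sf9 cells) were incubated 120 min at 37° C. in 50 mM Tris-HCl pH 7.4 with 150 mM MgCl2, 1 mM EDTA, 0.2% BSA, 50 μM DAG micelles (PC/PS) and 8.4 μM [^3H]-oleoylCoA. The reaction was stopped with N-ethylmaleimide and read as FlashPlate radioluminescence. Responses were normalized to enzyme/no-enzyme controls to fit dose-response curves.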

`O=C(CCc1ccncc1)Nc1ccc(N2CCN(C(=O)Nc3c(Cl)cccc3Cl)CC2)cc1` [Compound 193]: the melting point was in the range of 263 to 264 °C. The compound further had an IC50 in series [1] of 339 nM.

For the compound `O=C(CCCc1cccnc1)Nc1ccc(N2CCN(C(=O)Nc3c(Cl)cccc3Cl)CC2)cc1` [Compound 194], the melting point was in the range of 233 to 234 °C. This compound also gave an IC50 in series [1] of 33.9 nM.

For `CN(C)CCC(=O)Nc1ccc(N2CCN(C(=O)Nc3c(Cl)cccc3Cl)CC2)cc1` [Compound 196], the melting point lay within 194 to 196 °C. The compound further showed a concentration for half-maximal inhibition (IC50) in series [1] of 6760 nM.

`O=C(CCCc1ccncc1)Nc1ccc(N2CCN(C(=O)Nc3c(Cl)cccc3Cl)CC2)cc1` [Compound 197] displayed a melting point of 251 to 252 °C. The IC50 in series [1] is 123 nM.

In the case of `O=C(CCc1cccnc1)Nc1ccc(N2CCN(C(=O)Nc3c(Cl)cccc3Cl)CC2)cc1` [Compound 198], the melting point was 260 to 261 °C. In series [1], this compound showed an IC50 of 229 nM.

Consider `CN(C)CC(=O)Nc1ccc(N2CCN(C(=O)Nc3c(Cl)cccc3Cl)CC2)cc1` [Compound 200], for which the melting point was 245 to 246 °C. This compound also had a concentration for half-maximal inhibition (IC50) in series [1] of 3630 nM.

Turning to `O=C(CN1CCCC1)Nc1ccc(N2CCN(C(=O)Nc3c(Cl)cccc3Cl)CC2)cc1` [Compound 201], the melting point lay in the range of 214 to 216 °C. In series [1], this compound had an IC50 of 1950 nM.

`C=CC(=O)Nc1ccc(N2CCN(C(=O)Nc3c(Cl)cccc3Cl)CC2)cc1` [Compound 202] gave a melting point of 245 to 246 °C. Further, the IC50 in series [1] is 107 nM.

`COc1cc(CNC(=O)c2ccc(N3CCN(C(=O)Cc4c(Cl)cccc4Cl)CC3)cc2)cc(OC)c1` [Compound 225] yielded a melting point of 212.29 °C. The same compound had a half-inhibitory concentration (IC50) in series [1] of 9.55 nM.

Compound `CCOC(=O)c1ccc(CCCCCNC(=O)c2ccc(N3CCN(C(=O)Nc4c(Cl)cc(CN5CCCC5)cc4Cl)CC3)cc2)cc1` [Compound 226] came in with a melting point of 180.97 °C. In series [1], the IC50 is 9.77 nM.

In turn, `COc1ccc(CNC(=O)c2ccc(N3CCN(C(=O)Nc4c(Cl)cc(CC(=O)N5CCN(C)CC5)cc4Cl)CC3)cc2)cc1` [Compound 228] displayed a melting point of 220.01 °C. In series [1], the IC50 was 19.1 nM.

`O=C(NCc1cccc2ccccc12)c1ccc(N2CCN(C(=O)Cc3c(Cl)cccc3Cl)CC2)cc1` [Compound 229] displayed a melting point of 242.15 °C. In addition, inhibition in series [1] was half-maximal at 30.9 nM (IC50).

On to `COc1ccc(CNC(=O)c2ccc(N3CCN(C(=O)Cc4c(Cl)cccc4Cl)CC3)cc2)c(OC)c1` [Compound 230], for which the melting point was 180.99 °C. This compound also showed an IC50 in series [1] of 42.7 nM.

`COc1ccc(CNC(=O)c2ccc(N3CCN(C(=O)Nc4c(Cl)cc(CN5CCCC5)cc4Cl)CC3)cc2)cc1` [Compound 232] returned a melting point of 222.04 °C. This compound gave an IC50 in series [1] of 46.8 nM.

`Cc1ccccc1CNC(=O)c1ccc(N2CCN(C(=O)Cc3c(Cl)cccc3Cl)CC2)cc1` [Compound 233] yielded a melting point of 244.09 °C. In addition, 50.1 nM corresponded to half-maximal inhibition in series [1] (IC50).

On to `O=C(NCc1cccc(N2CCCC2)c1)c1ccc(N2CCN(C(=O)Cc3c(Cl)cccc3Cl)CC2)cc1` [Compound 234], for which the melting point is 251.1 °C. Also, the IC50 in series [1] was 50.1 nM.

With `O=C(NCc1ccc(-c2ccccn2)cc1)c1ccc(N2CCN(C(=O)Nc3c(Cl)cc(CN4CCCC4)cc3Cl)CC2)cc1` [Compound 236], the melting point is 217.37 °C. The compound further gave an IC50 in series [1] of 60.3 nM.

Take `COc1ccc(CNC(=O)c2ccc(N3CCN(C(=O)Nc4c(Cl)cc(CN(C(C)C)C(C)C)cc4Cl)CC3)cc2)cc1` [Compound 240]: the melting point came out at 208.87 °C. In series [1], it took 81.3 nM to reach half-maximal inhibition (IC50).

`Cc1cc(Cl)c(CC(=O)N2CCN(c3ccc(C(=O)NCc4cccc(N5CCCC5)c4)cc3)CC2)c(Cl)n1` [Compound 242] came in with a melting point of 172.73 °C. This compound also showed a half-maximal inhibitory concentration (IC50) in series [1] of 129 nM.

In turn, `COc1ccc(CCNC(=O)c2ccc(N3CCN(C(=O)Nc4c(Cl)cc(CN5CCCC5)cc4Cl)CC3)cc2F)cc1` [Compound 246] showed a melting point of 235 to 237 °C. Moreover, the 50% inhibitory concentration (IC50) in series [1] is 151 nM.

As for `O=C(NCc1ccncc1)c1ccc(N2CCN(C(=O)Cc3c(Cl)cccc3Cl)CC2)cc1` [Compound 251], the melting point stood at 239.51 °C. The compound also showed a half-maximal inhibitory concentration (IC50) in series [1] of 191 nM.

Regarding `COc1ccc(CNC(=O)c2ccc(N3CCN(C(=O)Nc4c(Cl)cc(CN5CCCC5)cc4Cl)CC3)cc2F)cc1` [Compound 255], the melting point fell in the range of 176.5 to 178 °C. In addition, the IC50 in series [1] is 339 nM.

Take `O=C(NCc1cccnc1)c1ccc(N2CCN(C(=O)Cc3c(Cl)cccc3Cl)CC2)cc1` [Compound 257]: the melting point was 242.27 °C. Also, in series [1], 661 nM corresponded to half-maximal inhibition (IC50).

In turn, `O=C(NCc1ccco1)c1ccc(N2CCN(C(=O)Cc3c(Cl)cccc3Cl)CC2)cc1` [Compound 258] displayed a melting point of 238.35 °C. The compound also showed an IC50 in series [1] of 759 nM.

Compound `C#CCNC(=O)c1ccc(N2CCN(C(=O)Cc3c(Cl)cccc3Cl)CC2)cc1` [Compound 259] came in with a melting point of 247.07 °C. In series [1], this compound gave an IC50 of 1350 nM.

`CCOCCNC(=O)c1ccc(N2CCN(C(=O)Cc3c(Cl)cccc3Cl)CC2)cc1` [Compound 262]: the melting point was 175.07 °C. Moreover, in series [1], the IC50 was 3240 nM.

Consider `COc1ccc(CN(C)C(=O)c2ccc(N3CCN(C(=O)Nc4c(Cl)cc(CN5CCCC5)cc4Cl)CC3)cc2)cc1` [Compound 263], for which the melting point came out at 132.84 °C. This compound had a half-inhibitory concentration (IC50) in series [1] of 3720 nM.

Compound `O=C(NCC1CCOCC1)c1ccc(N2CCN(C(=O)Nc3c(Cl)cc(CN4CCCC4)cc3Cl)CC2)cc1` [Compound 264] gave a melting point of 223.77 °C. The compound also gave an IC50 in series [1] of 3980 nM.

Compound `CN(Cc1ccccc1)C(=O)c1ccc(N2CCN(C(=O)Nc3c(Cl)cc(CN4CCCC4)cc3Cl)CC2)cc1` [Compound 266] displayed a melting point of 161.47 °C. Further, the IC50 in series [1] is 6170 nM.

For the compound `COc1ccc(CC(=O)Nc2ccc(N3CCN(C(=O)Nc4c(Cl)cc(CN5CCN(S(C)(=O)=O)CC5)cc4Cl)CC3)cc2)cc1` [Compound 268], the melting point worked out at 224.69 °C. This compound also gave a half-inhibitory concentration (IC50) in series [1] of 1.7 nM.

`CC(O)c1cc(Cl)c(NC(=O)N2CCC(c3ccc(NC(=O)CCCc4ccccc4)cc3)CC2)c(Cl)c1` (stereo not shown) [Compound 273]: the melting point was 203 to 204 °C. Besides, the half-inhibitory concentration (IC50) in series [1] is 3.72 nM.

In turn, `O=C(CCCc1ccccc1)Nc1ccc(C2CCN(C(=O)Nc3c(Cl)cc(CO)cc3Cl)CC2)cc1` [Compound 276] showed a melting point of 198 to 199 °C. Further, the IC50 in series [1] is 4.27 nM.

`Cc1ccc(NCCC(=O)Nc2ccc(N3CCN(C(=O)Nc4c(Cl)cc(O)cc4Cl)CC3)cc2)c(C)c1` [Compound 280] returned a melting point of 227 to 228 °C. This compound showed an IC50 in series [1] of 6.76 nM.

`C=CCN(CC(=O)Nc1ccc(N2CCN(C(=O)Nc3c(Cl)cc(OC)cc3Cl)CC2)cc1)Cc1ccc(C)cc1C` [Compound 281] registered a melting point of 149 to 150 °C. Besides, it took 7.24 nM to reach half-maximal inhibition in series [1] (IC50).

`COc1ccc(COC(=O)CCCC(=O)Nc2ccc(N3CCN(C(=O)Nc4c(Cl)cc(CN5CCCCC5)cc4Cl)CC3)cc2)cc1` [Compound 285] gave a melting point of 178 to 179 °C. For the same compound, in series [1], half-maximal inhibition (IC50) was put at 9.12 nM.

The values above are taken from patent publication US8981094B2, “Piperidine/piperazine derivatives” (Janssen Pharmaceutica N.V., priority 2007, dated 2015).
